In patent US9216985B2, “3-aryl-2-((arylamino)methyl)quinazolin-4-(3H)-ones” (SciFluor Life Sciences, Inc., priority 2013, dated 2015):

Columns and labels:
PI3Kδ = PI3Kδ (Homo sapiens (Human), UniProt O00329); experiment: Homogeneous Time Resolved Fluorescence (HTRF) lipid kinase assay; type: biochemical; conditions: HTRF format, 10 μM ATP
Experimental: (§1) The ability of the compounds of the present invention to inhibit the activity of four PI3K isoforms, PI3Kα, PI3Kβ, PI3Kγ, and PI3Kδ, were determined using a commercially available lipid kinase assay run in Homogeneous Time Resolved Fluorescence (HTRF) format.
(§2) Assay principle: The PIP3 product is detected by displacement of biotin-PIP3 from an energy transfer complex consisting of Europium labeled anti-GST monoclonal antibody, a GST-tagged pleckstrin homology (PH) domain, biotinylated PIP3 and Streptavidin-Allophycocyanin (APC). Excitation of Europium in the complex results in an energy transfer to the APC and a fluorescent emission at 665 nm. The PIP3 product formed by PI 3-Kinase(h) activity displaces biotin-PIP3 from the complex resulting in a loss of energy transfer and thus a decrease in signal.
(§3) This is a 3-step reaction: First, the kinase reaction with PIP2 substrate is carried out in the presence of ATP, and the reaction is quenched with stop Solution, and then finally detect by adding Detection Mixture followed by incubation.
(§4) Assay Buffer: HEPES 50 mM (pH7.0), NaN3 0.02%, BSA 0.01%, Orthovanadate 0.1 mM, 1% DMSO.
(§5) Detection buffer: HEPES 10 mM (pH7.0), BSA 0.02%, KF 0.16 M, EDTA 4 mM.
(§6) Substrate: […] PIP2 substrate (PI(4,5)P2)
(§7) ATP: 10 μM ATP under standard conditions
(§8) Control Inhibitor: PI-103
(§9) • 1. Prepare substrate in freshly prepared Reaction Buffer • 2. Deliver kinase into the substrate solution and gently mix • 3. Deliver compounds in 100% DMSO into the kinase reaction mixture by Acoustic technology (Echo550; nanolitter range), incubate for 10 min at room temp • 4. Deliver ATP into the reaction mixture to initiate the reaction • 5. Incubate for 30 min at 30° C. • 6. Quench the reaction with Stop Solution. • 7. Add Detection Mixture, and incubate for overnight. • 8. Measure HTRF: Ex=320 nm, ratio of Em=615 nm and Em=665 nm. Data Analysis:
(§10) The emission ratio is converted into μM PIP3 production based on PIP3 standard curves. The nonlinear regression to obtain the standard curve and IC50 values are performed using Graphpad Prism software.

PI3Kα = PI3Kα (Homo sapiens (Human), UniProt P42336); experiment: as above; type: biochemical; conditions: HTRF format, 10 μM ATP
Experimental: as §1, §2, §3, §4, §5, §6, §7, §8, §9, §10

PI3Kβ = PI3Kβ (Homo sapiens (Human), UniProt P42338); experiment: as above; type: biochemical; conditions: HTRF format, 10 μM ATP
Experimental: as §1, §2, §3, §4, §5, §6, §7, §8, §9, §10

PI3Kγ = PI3Kγ (Homo sapiens (Human), UniProt P48736); experiment: as above; type: biochemical; conditions: HTRF format, 10 μM ATP
Experimental: as §1, §2, §3, §4, §5, §6, §7, §8, §9, §10

PI3Kγ human (144-1102) = PI3Kγ human (144-1102) (Homo sapiens (Human), UniProt P48736); experiment: Reporter displacement assay; type: binding
Experimental: (§11) The ability of the compounds of the present invention to inhibit the activity of four PI3K isoforms, PI3Kα, PI3Kβ, PI3Kγ, and PI3Kδ, were determined using the commercially available reporter displacement assay that is based on reporter probes that are designed to bind to the site of interest of the target protein. The proximity between reporter and protein results in the emission of an optical signal. Compounds that bind to the same site as the reporter probe displace the probe, causing signal diminution. Reporter displacement is measured over time after addition of compounds at various concentrations. The assay conditions were:
(§12) Assay plates: 384 well U bottom, PP, black, low volume (Corning, 3676)
(§13) Full probe displacement: absence of enzyme and compound
(§14) Full probe binding: absence of compound
(§15) Reaction buffer: 20 mM Mops, pH 7.01 mM DTT, 0.01% Tween 20

PI3Kα human fl = PI3Kα human fl (Homo sapiens (Human), UniProt P42336); experiment: Reporter displacement assay; type: binding
Experimental: as §11, §12, §13, §14, §15

PI3Kβ human (1-1070) = PI3Kβ human (1-1070) (Homo sapiens (Human), UniProt P42338); experiment: Reporter displacement assay; type: binding
Experimental: as §11, §12, §13, §14, §15

PI3Kδ human fl = PI3Kδ human fl (Homo sapiens (Human), UniProt O00329); experiment: Reporter displacement assay; type: binding
Experimental: as §11, §12, §13, §14, §15

Chain of PI3Kβ (P42338 whole entry): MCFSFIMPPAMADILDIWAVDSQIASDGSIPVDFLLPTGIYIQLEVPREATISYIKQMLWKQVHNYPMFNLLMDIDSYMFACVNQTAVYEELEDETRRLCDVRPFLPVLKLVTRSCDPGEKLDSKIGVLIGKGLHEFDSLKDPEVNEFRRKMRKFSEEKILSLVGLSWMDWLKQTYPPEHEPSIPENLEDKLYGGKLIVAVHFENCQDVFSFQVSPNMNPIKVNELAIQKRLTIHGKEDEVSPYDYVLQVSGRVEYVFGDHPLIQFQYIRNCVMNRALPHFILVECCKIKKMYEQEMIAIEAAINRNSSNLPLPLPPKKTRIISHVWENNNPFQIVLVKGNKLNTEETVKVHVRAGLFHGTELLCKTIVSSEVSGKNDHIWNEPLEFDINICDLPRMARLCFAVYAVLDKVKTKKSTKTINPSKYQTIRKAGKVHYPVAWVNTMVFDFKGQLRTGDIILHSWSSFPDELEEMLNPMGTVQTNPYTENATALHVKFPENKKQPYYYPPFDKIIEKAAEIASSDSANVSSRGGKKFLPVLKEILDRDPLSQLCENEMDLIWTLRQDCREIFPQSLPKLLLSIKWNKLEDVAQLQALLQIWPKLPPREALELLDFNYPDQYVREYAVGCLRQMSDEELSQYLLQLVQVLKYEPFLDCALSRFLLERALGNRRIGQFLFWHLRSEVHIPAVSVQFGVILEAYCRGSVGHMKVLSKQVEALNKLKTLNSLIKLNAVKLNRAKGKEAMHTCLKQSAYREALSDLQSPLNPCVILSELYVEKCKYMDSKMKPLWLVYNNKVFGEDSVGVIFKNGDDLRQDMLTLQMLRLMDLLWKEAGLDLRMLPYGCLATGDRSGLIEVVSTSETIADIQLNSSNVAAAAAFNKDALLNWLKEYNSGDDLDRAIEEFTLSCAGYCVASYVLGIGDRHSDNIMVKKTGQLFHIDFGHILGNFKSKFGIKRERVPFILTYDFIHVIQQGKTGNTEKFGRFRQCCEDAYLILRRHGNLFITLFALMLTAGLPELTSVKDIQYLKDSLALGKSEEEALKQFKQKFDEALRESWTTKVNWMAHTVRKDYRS
Chain of PI3Kβ (P27986 whole entry partner): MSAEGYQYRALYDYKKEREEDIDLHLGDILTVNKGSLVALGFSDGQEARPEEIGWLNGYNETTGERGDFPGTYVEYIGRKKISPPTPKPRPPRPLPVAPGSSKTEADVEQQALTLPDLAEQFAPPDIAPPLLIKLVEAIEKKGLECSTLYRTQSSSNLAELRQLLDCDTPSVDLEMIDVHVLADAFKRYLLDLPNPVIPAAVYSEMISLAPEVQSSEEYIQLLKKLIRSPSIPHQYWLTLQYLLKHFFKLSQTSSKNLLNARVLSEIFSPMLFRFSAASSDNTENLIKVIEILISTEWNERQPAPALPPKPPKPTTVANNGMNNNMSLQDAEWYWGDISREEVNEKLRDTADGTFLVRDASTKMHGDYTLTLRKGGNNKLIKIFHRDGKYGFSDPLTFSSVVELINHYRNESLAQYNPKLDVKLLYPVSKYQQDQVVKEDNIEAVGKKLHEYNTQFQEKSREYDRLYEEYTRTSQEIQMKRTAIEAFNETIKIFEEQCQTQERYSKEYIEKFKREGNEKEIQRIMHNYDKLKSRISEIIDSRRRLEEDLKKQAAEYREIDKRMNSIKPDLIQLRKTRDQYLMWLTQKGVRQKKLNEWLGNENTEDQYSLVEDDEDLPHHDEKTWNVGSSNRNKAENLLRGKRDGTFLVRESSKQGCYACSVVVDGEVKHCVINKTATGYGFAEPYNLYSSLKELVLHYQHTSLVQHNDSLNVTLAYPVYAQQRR
Chain of PI3Kδ (O00329 whole entry, canonical isoform): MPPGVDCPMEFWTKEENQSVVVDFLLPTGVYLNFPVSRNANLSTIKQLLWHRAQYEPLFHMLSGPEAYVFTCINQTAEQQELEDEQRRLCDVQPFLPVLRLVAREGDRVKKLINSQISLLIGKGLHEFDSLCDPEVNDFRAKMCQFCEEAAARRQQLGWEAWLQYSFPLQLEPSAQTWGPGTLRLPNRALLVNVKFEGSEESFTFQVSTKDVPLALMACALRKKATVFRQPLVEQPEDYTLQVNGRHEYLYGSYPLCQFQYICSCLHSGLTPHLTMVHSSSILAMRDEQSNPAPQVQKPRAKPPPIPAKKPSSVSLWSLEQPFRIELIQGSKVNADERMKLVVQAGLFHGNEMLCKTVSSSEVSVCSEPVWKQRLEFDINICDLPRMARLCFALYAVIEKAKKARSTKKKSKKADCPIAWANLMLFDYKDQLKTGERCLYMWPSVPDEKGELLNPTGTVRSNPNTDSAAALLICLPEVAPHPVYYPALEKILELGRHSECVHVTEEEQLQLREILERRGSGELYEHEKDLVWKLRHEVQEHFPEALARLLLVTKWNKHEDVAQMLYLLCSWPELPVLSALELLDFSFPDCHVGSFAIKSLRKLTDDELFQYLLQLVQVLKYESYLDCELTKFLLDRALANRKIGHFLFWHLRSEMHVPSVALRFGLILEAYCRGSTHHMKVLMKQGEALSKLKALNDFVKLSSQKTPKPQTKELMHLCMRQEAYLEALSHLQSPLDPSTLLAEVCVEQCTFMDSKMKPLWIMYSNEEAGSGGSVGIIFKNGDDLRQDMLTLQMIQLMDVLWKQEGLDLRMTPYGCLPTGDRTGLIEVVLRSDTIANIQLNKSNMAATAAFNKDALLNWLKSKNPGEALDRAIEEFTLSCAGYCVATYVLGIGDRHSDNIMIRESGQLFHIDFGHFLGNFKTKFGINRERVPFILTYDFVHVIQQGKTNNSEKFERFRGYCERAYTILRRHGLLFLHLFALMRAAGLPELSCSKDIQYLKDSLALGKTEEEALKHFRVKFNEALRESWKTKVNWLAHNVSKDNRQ
Chain of PI3Kδ (P27986 whole entry partner, canonical isoform): as the sequence (P27986 whole entry partner) above
Chain of PI3Kγ (P48736 whole entry): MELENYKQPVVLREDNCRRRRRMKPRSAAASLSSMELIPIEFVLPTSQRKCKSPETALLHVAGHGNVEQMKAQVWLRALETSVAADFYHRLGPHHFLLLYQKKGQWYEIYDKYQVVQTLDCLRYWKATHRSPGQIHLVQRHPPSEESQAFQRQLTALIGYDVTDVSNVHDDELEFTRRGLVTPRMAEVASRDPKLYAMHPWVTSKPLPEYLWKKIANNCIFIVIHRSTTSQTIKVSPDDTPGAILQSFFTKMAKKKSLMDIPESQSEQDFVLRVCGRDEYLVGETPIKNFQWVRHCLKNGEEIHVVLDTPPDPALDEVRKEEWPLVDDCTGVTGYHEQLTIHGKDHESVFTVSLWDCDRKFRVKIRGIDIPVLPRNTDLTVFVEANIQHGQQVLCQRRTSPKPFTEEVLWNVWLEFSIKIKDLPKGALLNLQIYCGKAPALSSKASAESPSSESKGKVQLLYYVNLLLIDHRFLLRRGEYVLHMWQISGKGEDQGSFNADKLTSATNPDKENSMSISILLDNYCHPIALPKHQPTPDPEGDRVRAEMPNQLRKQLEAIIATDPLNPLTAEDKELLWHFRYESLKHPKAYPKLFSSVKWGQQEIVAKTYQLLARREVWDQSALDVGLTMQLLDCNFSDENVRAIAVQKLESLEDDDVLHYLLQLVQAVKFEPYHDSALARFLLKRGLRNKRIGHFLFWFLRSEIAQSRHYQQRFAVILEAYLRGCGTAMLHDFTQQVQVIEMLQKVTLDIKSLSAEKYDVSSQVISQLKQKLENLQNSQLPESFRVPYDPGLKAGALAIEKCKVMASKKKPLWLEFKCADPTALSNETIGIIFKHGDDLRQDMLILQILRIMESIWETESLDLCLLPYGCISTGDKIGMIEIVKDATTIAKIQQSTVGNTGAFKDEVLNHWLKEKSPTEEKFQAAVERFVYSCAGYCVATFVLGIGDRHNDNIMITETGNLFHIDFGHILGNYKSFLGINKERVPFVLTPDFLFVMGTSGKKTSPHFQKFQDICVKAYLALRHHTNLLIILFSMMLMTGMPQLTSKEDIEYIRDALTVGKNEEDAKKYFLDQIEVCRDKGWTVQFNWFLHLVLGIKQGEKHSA
Chain of PI3Kα (P42336 whole entry): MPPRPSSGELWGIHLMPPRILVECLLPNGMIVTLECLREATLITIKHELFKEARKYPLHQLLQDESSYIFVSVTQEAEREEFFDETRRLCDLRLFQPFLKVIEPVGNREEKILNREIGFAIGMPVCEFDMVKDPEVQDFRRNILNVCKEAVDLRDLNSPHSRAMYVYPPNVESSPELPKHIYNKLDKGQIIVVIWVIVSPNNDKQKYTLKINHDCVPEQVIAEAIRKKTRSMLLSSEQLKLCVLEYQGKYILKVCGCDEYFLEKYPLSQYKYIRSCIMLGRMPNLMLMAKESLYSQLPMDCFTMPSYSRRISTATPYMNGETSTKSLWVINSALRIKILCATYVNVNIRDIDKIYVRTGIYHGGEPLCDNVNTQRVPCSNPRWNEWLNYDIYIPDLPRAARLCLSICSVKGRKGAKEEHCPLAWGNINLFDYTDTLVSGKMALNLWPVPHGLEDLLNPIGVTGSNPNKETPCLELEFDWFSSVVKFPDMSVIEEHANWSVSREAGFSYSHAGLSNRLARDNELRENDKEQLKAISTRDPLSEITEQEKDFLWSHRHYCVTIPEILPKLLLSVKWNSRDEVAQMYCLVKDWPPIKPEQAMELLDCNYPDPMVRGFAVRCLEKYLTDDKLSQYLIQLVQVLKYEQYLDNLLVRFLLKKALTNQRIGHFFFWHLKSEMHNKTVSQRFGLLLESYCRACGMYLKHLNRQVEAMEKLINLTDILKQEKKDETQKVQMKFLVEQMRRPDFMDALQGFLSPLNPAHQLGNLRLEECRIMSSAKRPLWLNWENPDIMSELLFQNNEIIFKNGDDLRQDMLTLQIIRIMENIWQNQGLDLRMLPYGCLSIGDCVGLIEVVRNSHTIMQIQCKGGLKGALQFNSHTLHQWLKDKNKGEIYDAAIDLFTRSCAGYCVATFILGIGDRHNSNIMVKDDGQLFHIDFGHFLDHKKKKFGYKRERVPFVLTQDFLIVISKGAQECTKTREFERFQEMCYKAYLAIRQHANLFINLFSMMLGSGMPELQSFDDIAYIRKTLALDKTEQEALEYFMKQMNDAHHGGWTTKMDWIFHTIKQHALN
Chain of PI3Kα (P27986 whole entry partner): as the sequence (P27986 whole entry partner) above

IC50 (PI3Kδ) [nM] | IC50 (PI3Kα) [nM] | IC50 (PI3Kβ) [nM] | IC50 (PI3Kγ) [nM] | IC50 (PI3Kγ human (144-1102)) [nM] | IC50 (PI3Kα human fl) [nM] | IC50 (PI3Kβ human (1-1070)) [nM] | IC50 (PI3Kδ human fl) [nM] | Structure (SMILES)
20 | – | – | 740 | – | – | – | – | CC[C@H](Nc1ncnc2[nH]cnc12)c1nc2cccc(F)c2c(=O)n1-c1cccc(OCC(F)(F)F)c1 [Compound 10A, (S)-2-(1-((9H-purin-6-yl)amino)propyl)-5-fluoro-3-(3-(2,2,2-trifluoroethoxy)phenyl)quinazolin-4(3H)-one]
110 | 115000 | – | 3000 | – | – | – | – | CC[C@H](Nc1ncnc2[nH]ccc12)c1nc2cccc(F)c2c(=O)n1-c1cccc(OCC(F)(F)F)c1 [Compound 11A, (S)-2-(1-((7H-pyrrolo[2,3-d]pyrimidin-4-yl)amino)propyl)-5-fluoro-3-(3-(2,2,2-trifluoroethoxy)phenyl)quinazolin-4(3H)-one]
8 | 10000 | 3400 | 1200 | – | – | – | – | C[C@H](Nc1ncnc2[nH]cc(F)c12)c1nc2cccc(F)c2c(=O)n1-c1cccc(OCC(F)(F)F)c1 [Compound 17A, (S)-5-fluoro-2-(1-((5-fluoro-7H-pyrrolo[2,3-d]pyrimidin-4-yl)amino)ethyl)-3-(3-(2,2,2-trifluoroethoxy)phenyl)quinazolin-4(3H)-one]
190 | > 10000 | > 10000 | 4500 | – | – | – | – | C[C@H](Nc1ncnc2[nH]ccc12)c1nc2cccc(F)c2c(=O)n1-c1cccc(OCC(F)(F)C(F)(F)F)c1 [Compound 19A, (S)-2-(1-((7H-pyrrolo[2,3-d]pyrimidin-4-yl)amino)ethyl)-5-fluoro-3-(3-(2,2,3,3,3-pentafluoropropoxy)phenyl)quinazolin-4(3H)-one]
10 | 4100 | 1100 | 460 | – | – | – | – | C[C@H](Nc1ncnc2[nH]ccc12)c1nc2cccc(Cl)c2c(=O)n1-c1cccc(OCC(F)(F)F)c1 [Compound 20A, (S)-2-(1-((7H-pyrrolo[2,3-d]pyrimidin-4-yl)amino)ethyl)-5-chloro-3-(3-(2,2,2-trifluoroethoxy)phenyl)quinazolin-4(3H)-one]

Further lines, the molecule ahead of its results:

Structure (SMILES) | IC50 (PI3Kδ) [nM] | IC50 (PI3Kα) [nM] | IC50 (PI3Kβ) [nM] | IC50 (PI3Kγ) [nM] | IC50 (PI3Kγ human (144-1102)) [nM] | IC50 (PI3Kα human fl) [nM] | IC50 (PI3Kβ human (1-1070)) [nM] | IC50 (PI3Kδ human fl) [nM]
CC[C@H](Nc1ncnc2[nH]ccc12)c1nc2cccc(F)c2c(=O)n1-c1ccccc1 [Compound 1A, (S)-2-(1-((7H-pyrrolo[2,3-d]pyrimidin-4-yl)amino)propyl)-5-fluoro-3-phenylquinazolin-4(3H)-one] | 8 | 3700 | 650 | 1200 | – | – | – | –
O=c1c2c(F)cccc2nc([C@H](CC(F)(F)F)Nc2ncnc3[nH]cnc23)n1-c1ccccc1 [Compound 2A, (S)-2-(1-((9H-purin-6-yl)amino)-3,3,3-trifluoropropyl)-5-fluoro-3-phenylquinazolin-4(3H)-one] | 80 | – | 3900 | 1800 | – | – | – | –
CC[C@H](Nc1ncnc2[nH]cnc12)c1nc2cccc(F)c2c(=O)n1-c1cccc(CC(F)(F)F)c1 [Compound 6A, (S)-2-(1-((9H-purin-6-yl)amino)propyl)-5-fluoro-3-(3-(2,2,2-trifluoroethyl)phenyl)quinazolin-4(3H)-one] | 20 | 15000 | 3100 | 300 | – | – | – | –
CC[C@H](Nc1ncnc2[nH]ccc12)c1nc2cccc(F)c2c(=O)n1-c1cccc(CC(F)(F)F)c1 [Compound 7A, (S)-2-(1-((7H-pyrrolo[2,3-d]pyrimidin-4-yl)amino)propyl)-5-fluoro-3-(3-(2,2,2-trifluoroethyl)phenyl)quinazolin-4(3H)-one] | 50 | 28000 | 5800 | 1300 | – | – | – | –
C[C@H](Nc1ncnc2[nH]ccc12)c1nc2cccc(F)c2c(=O)n1-c1ccc(OCC(F)(F)F)cc1 [Compound 15A, (S)-2-(1-((7H-pyrrolo[2,3-d]pyrimidin-4-yl)amino)ethyl)-5-fluoro-3-(4-(2,2,2-trifluoroethoxy)phenyl)quinazolin-4(3H)-one] | 9 | 9700 | 7300 | 740 | – | – | – | –
CC[C@H](Nc1ncnc2[nH]ccc12)c1nc2cccc(F)c2c(=O)n1-c1ccc(OCC(F)(F)F)cc1 [Compound 16A, (S)-2-(1-((7H-pyrrolo[2,3-d]pyrimidin-4-yl)amino)propyl)-5-fluoro-3-(4-(2,2,2-trifluoroethoxy)phenyl)quinazolin-4(3H)-one] | 90 | – | 10500 | 5400 | – | – | – | –
O=c1c2c(F)cccc2nc(CNc2ncnc3[nH]ccc23)n1-c1cccc(OCC(F)(F)F)c1 [Compound 21A, 2-(((7H-pyrrolo[2,3-d]pyrimidin-4-yl)amino)methyl)-5-fluoro-3-(3-(2,2,2-trifluoroethoxy)phenyl)quinazolin-4(3H)-one] | 2100 | – | > 10000 | – | – | – | – | –
C[C@H](Nc1ncnc2[nH]ccc12)c1nc2cccc(F)c2c(=O)n1-c1cccc(OCC(F)F)c1 [Compound 22A, (S)-2-(1-((7H-pyrrolo[2,3-d]pyrimidin-4-yl)amino)ethyl)-3-(3-(2,2-difluoroethoxy)phenyl)-5-fluoroquinazolin-4(3H)-one] | – | – | – | – | 1200 | 9800 | 2100 | 20
